Format in all cases: cell-based, Escherichia coli
One assay relates to E. coli (APH(3′)IIIa). Briefly: MIC 50, broth micro-dilution, E. coli expressing APH(3′)IIIa. In a few lines: (§1)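 Two-fold dilution series of compound (64 μM top, final) in MH2 broth, inoculated with plasmid-transformed E. coli ATCC 25922 at OD 0.1 and incubated 18 h, 37° C. Half-maximal growth by OD600 defined MIC50.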
Background: In broth dilution the organism is exposed to a series of concentrations in liquid medium.

The next assay deals with E. coli (AAC(3)III). Briefly: MIC 50, broth micro-dilution, E. coli expressing AAC(3)III.
For the next assay, the system named is E. coli (AAC(3)IV). The experiment in a line: MIC 50, broth micro-dilution, E. coli expressing AAC(3)IV. Summed up: as §1
The mark [1] stands for this setting: Escherichia coli, ATCC25922, ATCC25922 harboring plasmid encoding APH(3′)IIIa.
[2] abbreviates: Escherichia coli, ATCC25922, ATCC25922 harboring plasmid encoding AAC(3)III.
The mark [3] stands for this setting: Escherichia coli, ATCC25922, ATCC25922 harboring plasmid encoding AAC(3)IV.
Setting [4] is: ATCC25922 harboring plasmid encoding APH(3′)IIIa.
[5] abbreviates: ATCC25922 harboring plasmid encoding AAC(3)III.
Where [6] appears, read: ATCC25922 harboring plasmid encoding AAC(3)IV.

≈ marks a conversion by molar mass, not a printed value.

For orientation: MIC50 means the lowest concentration that inhibits either 50% of growth or 50% of the strains tested, depending on the study. On to `N=C(NCC1CCOC1)NC1[C@@H](O)C(OC2[C@@H](F)[C@H](O[C@H]3OC(CN)[C@@H](O)CC3N)C(N)C[C@H]2NC(=O)[C@@H](O)CCN)O[C@H](CO)[C@H]1O` (stereo partly drawn) [ABX5051, Tobra-AHB-F-Gua tetrahydrofuran-3-yl methyl], for which the MIC50 was 0.5 µM (≈ 0.348 µg/mL) against E. coli (APH(3′)IIIa) (setting [1]), 0.5 to 1 µM (≈ 0.348 to 0.697 µg/mL) against E. coli (AAC(3)III) (setting [2]) and 2 µM (≈ 1.39 µg/mL) against E. coli (AAC(3)IV) (setting [3]).
With `NCC[C@H](O)C(=O)N[C@@H]1CC(N)[C@@H](O[C@H]2OC(CN)[C@@H](O)[C@@H](O)C2N)[C@H](F)C1OC1O[C@H](CO)[C@@H](O)C(N)[C@H]1O` (stereo partly drawn) [ABX4003, 3′Epi-KanaB-AHB-F], the results for the “MIC50” value against E. coli (APH(3′)IIIa) (setting [4]), in the assay with E. coli (AAC(3)III) (setting [5]) and against E. coli (AAC(3)IV) (setting [6]) were 8 µM (≈ 4.69 µg/mL), 2 µM (≈ 1.17 µg/mL) and 8 to 16 µM, respectively.
In the case of `N=C(NCC1CC1)NC1[C@@H](O)C(OC2[C@@H](F)[C@H](O[C@H]3OC(CN)[C@@H](O)CC3N)C(N)C[C@H]2NC(=O)[C@@H](O)CCN)O[C@H](CO)[C@H]1O` (stereo partly drawn) [ABX5027, Tobra-AHB-F-Gua cyclopropylmethyl], the MIC50 is 0.25 to 0.5 µM (≈ 0.167 to 0.333 µg/mL) in the assay with E. coli (APH(3′)IIIa) (setting [1]), 0.25 µM (≈ 0.167 µg/mL) against E. coli (AAC(3)III) (setting [2]) and 2 µM (≈ 1.33 µg/mL) in the assay on E. coli (AAC(3)IV) (setting [3]).
Take `N=C(NC[C@@H]1CCNC1)NC1[C@@H](O)C(OC2[C@@H](F)[C@H](O[C@H]3OC(CN)[C@@H](O)CC3N)C(N)C[C@H]2NC(=O)[C@@H](O)CCN)O[C@H](CO)[C@H]1O` (stereo partly drawn) [ABX5039, Tobra-AHB-F-Gua (R) pyrrolidine-3-ylmethyl]: the MIC50 in the assay on E. coli (APH(3′)IIIa) (setting [1]) is 0.25 µM (≈ 0.174 µg/mL); with E. coli (AAC(3)III) (setting [2]), 0.25 µM (≈ 0.174 µg/mL); against E. coli (AAC(3)IV) (setting [3]) it was 1 µM (≈ 0.696 µg/mL).
Regarding `CNCCNC(=N)NC1[C@@H](O)C(OC2[C@@H](F)[C@H](O[C@H]3OC(CN)[C@@H](O)CC3N)C(N)C[C@H]2NC(=O)[C@@H](O)CCN)O[C@H](CO)[C@H]1O` (stereo partly drawn) [ABX5038, Tobra-AHB-F-Gua 2-(methylamino)ethyl], the values for the MIC50 in the assay with E. coli (APH(3′)IIIa) (setting [1]), with E. coli (AAC(3)III) (setting [2]) and in the assay on E. coli (AAC(3)IV) (setting [3]) were 0.25 µM (≈ 0.167 µg/mL), 0.25 µM (≈ 0.167 µg/mL) and 1 µM (≈ 0.67 µg/mL), respectively.
As to `N=C(NCc1ccncc1)NC1[C@@H](O)C(OC2[C@@H](F)[C@H](O[C@H]3OC(CN)[C@@H](O)CC3N)C(N)C[C@H]2NC(=O)[C@@H](O)CCN)O[C@H](CO)[C@H]1O` (stereo partly drawn) [ABX5048, Tobra-AHB-F-Gua pyridin-4-yl methyl], the MIC50 is 0.25 µM (≈ 0.176 µg/mL) against E. coli (APH(3′)IIIa) (setting [1]), 0.5 to 1 µM (≈ 0.352 to 0.704 µg/mL) in the assay on E. coli (AAC(3)III) (setting [2]) and 1 to 2 µM (≈ 0.704 to 1.41 µg/mL) in the assay with E. coli (AAC(3)IV) (setting [3]).
For `N=C(N)NC1[C@@H](O)C(OC2[C@@H](O)[C@H](O[C@H]3OC(CN)[C@@H](O)CC3N)C(N)C[C@H]2NC(=O)[C@@H](O)CCN)O[C@H](CO)[C@H]1O` (stereo partly drawn) [ABX5005, Tobra-AHB-Gua], the “MIC50” value in the assay on E. coli (APH(3′)IIIa) (setting [4]) was 2 to 4 µM; against E. coli (AAC(3)III) (setting [5]), 0.5 µM (≈ 0.305 µg/mL); against E. coli (AAC(3)IV) (setting [6]) it was 1 to 2 µM.
For the compound `N=C(NCCCN)NC1[C@@H](O)C(OC2[C@@H](F)[C@H](O[C@H]3OC(CN)[C@@H](O)CC3N)C(N)C[C@H]2NC(=O)[C@@H](O)CCN)O[C@H](CO)[C@H]1O` (stereo partly drawn) [ABX5030, Tobra-AHB-F-Gua-3-amino-propyl], the MIC50 in the assay with E. coli (APH(3′)IIIa) (setting [1]) was found to be 0.25 µM (≈ 0.167 µg/mL); in the assay on E. coli (AAC(3)III) (setting [2]) it was 0.25 µM (≈ 0.167 µg/mL); in the assay with E. coli (AAC(3)IV) (setting [3]), 0.5 µM (≈ 0.335 µg/mL).
In the case of `N=C(NCCO)NC1[C@@H](O)C(OC2[C@@H](F)[C@H](O[C@H]3OC(CN)[C@@H](O)CC3N)C(N)C[C@H]2NC(=O)[C@@H](O)CCN)O[C@H](CO)[C@H]1O` (stereo partly drawn) [ABX5029, Tobra-AHB-F-Gua 2-hydroxy-ethyl], the values for the MIC50 in the assay on E. coli (APH(3′)IIIa) (setting [1]), in the assay with E. coli (AAC(3)III) (setting [2]) and against E. coli (AAC(3)IV) (setting [3]) were 0.5 µM (≈ 0.328 µg/mL), 0.5 µM (≈ 0.328 µg/mL) and 2 µM (≈ 1.31 µg/mL), respectively.
Turning to `N=C(NC[C@@H]1CCCN1)NC1[C@@H](O)C(OC2[C@@H](F)[C@H](O[C@H]3OC(CN)[C@@H](O)CC3N)C(N)C[C@H]2NC(=O)[C@@H](O)CCN)O[C@H](CO)[C@H]1O` (stereo partly drawn) [ABX5026, Tobra-AHB-F-Gua (S) pyrrolidine-2-yl-methyl], the figures for the MIC50 against E. coli (APH(3′)IIIa) (setting [1]), in the assay with E. coli (AAC(3)III) (setting [2]) and against E. coli (AAC(3)IV) (setting [3]) were 0.25 µM (≈ 0.174 µg/mL), 0.25 µM (≈ 0.174 µg/mL) and 0.5 µM (≈ 0.348 µg/mL), respectively.
With `N=C(NC[C@H]1CCNC1)NC1[C@@H](O)C(OC2[C@@H](F)[C@H](O[C@H]3OC(CN)[C@@H](O)CC3N)C(N)C[C@H]2NC(=O)[C@@H](O)CCN)O[C@H](CO)[C@H]1O` (stereo partly drawn) [ABX5042, Tobra-AHB-F-Gua (S) pyrrolidine-3-ylmethyl], the MIC50 in the assay with E. coli (APH(3′)IIIa) (setting [1]) worked out at 0.25 µM (≈ 0.174 µg/mL); against E. coli (AAC(3)III) (setting [2]), 0.125 µM (≈ 0.087 µg/mL); with E. coli (AAC(3)IV) (setting [3]) it was 1 µM (≈ 0.696 µg/mL).
On to `N=C(N)NC1[C@@H](O)C(OC2[C@@H](F)[C@H](O[C@H]3OC(CN)[C@@H](O)[C@H](O)C3N)C(N)C[C@H]2NC(=O)[C@@H](O)CCN)O[C@H](CO)[C@H]1O` (stereo partly drawn) [ABX4006, KanaB-AHB-F-Gua], for which the “MIC50” value with E. coli (APH(3′)IIIa) (setting [4]) is 4 to 8 µM; against E. coli (AAC(3)III) (setting [2]), 0.25 µM (≈ 0.157 µg/mL); in the assay with E. coli (AAC(3)IV) (setting [3]), 2 µM (≈ 1.26 µg/mL).
As to `N=C(N)NC1[C@@H](O)C(OC2[C@@H](F)[C@H](O[C@H]3OC(CN)[C@@H](O)[C@H](O)C3O)C(N)C[C@H]2NC(=O)[C@@H](O)CCN)O[C@H](CO)[C@H]1O` (stereo partly drawn) [ABX3003, 3′epi-KanaA-AHB-F-Gua], the MIC50 was 2 µM (≈ 1.26 µg/mL) in the assay on E. coli (APH(3′)IIIa) (setting [1]), 1 µM (≈ 0.63 µg/mL) in the assay on E. coli (AAC(3)III) (setting [2]) and 4 µM (≈ 2.52 µg/mL) against E. coli (AAC(3)IV) (setting [3]).
For `NCC[C@H](O)C(=O)N[C@@H]1C[C@H](N)[C@@H](O[C@H]2O[C@H](CN)[C@@H](O)[C@H](O)[C@H]2O)[C@H](O)[C@H]1O[C@H]1O[C@H](CO)[C@@H](O)[C@H](N)[C@H]1O` [Amikacin, amikacin, reference compound], the MIC50 was 16 to 32 µM (≈ 9.37 to 18.7 µg/mL) with E. coli (APH(3′)IIIa) (setting [1]), 2 µM (≈ 1.17 µg/mL) with E. coli (AAC(3)III) (setting [2]) and 8 µM (≈ 4.68 µg/mL) in the assay with E. coli (AAC(3)IV) (setting [3]).
As for `N=C(N)NC1[C@@H](O)C(OC2[C@@H](O)[C@H](O[C@H]3OC(CN)[C@@H](O)[C@H](O)C3N)C(N)C[C@H]2NC(=O)[C@@H](O)CCN)O[C@H](CO)[C@H]1O` (stereo partly drawn) [ABX4009, KanaB-AHB-Gua], the “MIC50” value is 64 µM (≈ 40.1 µg/mL) against E. coli (APH(3′)IIIa) (setting [4]), 1 to 2 µM with E. coli (AAC(3)III) (setting [5]) and 8 µM (≈ 5.01 µg/mL) in the assay on E. coli (AAC(3)IV) (setting [6]).
Turning to `N=C(N)NC1[C@@H](O)C(OC2[C@@H](F)[C@H](O[C@H]3OC(CNCCO)[C@@H](O)CC3N)C(N)C[C@H]2NC(=O)[C@@H](O)CCN)O[C@H](CO)[C@H]1O` (stereo partly drawn) [ABX5045, 6N-2-hydroxy-ethyl-Tobra-AHB-F-Gua], the MIC50 was 1 µM (≈ 0.657 µg/mL) in the assay on E. coli (APH(3′)IIIa) (setting [1]), 0.5 to 1 µM (≈ 0.328 to 0.657 µg/mL) with E. coli (AAC(3)III) (setting [2]) and 2 µM (≈ 1.31 µg/mL) against E. coli (AAC(3)IV) (setting [3]).
In the case of `NCC[C@H](O)C(=O)N[C@@H]1CC(N)[C@@H](O[C@H]2OC(CN)[C@@H](O)[C@@H](O)C2N)[C@H](O)C1OC1O[C@H](CO)[C@@H](O)C(N)[C@H]1O` (stereo partly drawn) [ABX4002, 3′Epi-KanaB-AHB], the “MIC50” value in the assay on E. coli (APH(3′)IIIa) (setting [4]) is 8 µM (≈ 4.68 µg/mL); in the assay on E. coli (AAC(3)III) (setting [5]), 4 µM (≈ 2.34 µg/mL); in the assay with E. coli (AAC(3)IV) (setting [6]), 8 to 16 µM.

The values above are taken from patent US20220127297A1, “Novel Antibacterial 3"-Derivatives Of 4,6-Disubstituted 2,5-Dideoxystreptamine Aminoglycoside Antibiotics” (AGILeBiotics B.V., priority 2018, published 2022).
